Assays:
Format in all cases: in vivo
[1] = test system: upland rice (Oryza sp., var. Tebonnet, RICE); experiment: Pre-emerge test, crop safety; settings: rating scale 0-100, 14 days after application
Method in brief: (§1)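 Fourteen days after spraying, crop and weed injury was graded visually from 0, no effect, to 100, every plant dead. Test substances were dissolved in acetone and applied at 15–1000 g ai/ha with a flat-fan nozzle. Application was either pre-emergence, one day after sowing, or post-emergence at the 2–3 leaf stage.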

[2] = test system: field corn (Zea mays L., var. Dekalb 535, CORN); experiment: Pre-emerge test, crop safety; settings: rating scale 0-100, 14 days after application
Method in brief: as §1

[3] = test system: redroot pigweed (Amaranthus retroflexus, AMARE); experiment: Pre-emerge test, greenhouse herbicide activity screening; settings: rating scale 0-100, 14 days after application
Method in brief: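 Visual ratings on a 0-100 scale (0 no damage, 100 all plants dead) were taken at 14 days after treatment. Rates of 15-1000 g ai/ha in acetone, 187 l/ha, were sprayed onto soil one day after planting (pre-emerge) or onto 2-3 leaf plants with 0.25% v/v surfactant (post-emerge).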

[4] = test system: velvetleaf (Abutilon theophrasti, ABUTH); experiment: as above; settings: rating scale 0-100, 14 days after application
Method in brief: (§2)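 Compounds in acetone were track-sprayed at 15-1000 g ai/ha (187 l/ha) on sandy loam pots: pre-emerge one day after seeding, post-emerge at 2-3 leaf stage with 0.25% v/v non-ionic surfactant. Phytotoxicity was rated 14 days later on a 0 (no damage) to 100 (complete death) scale.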

[5] = test system: lambsquarters (Chenopodium album, CHEAL); experiment: as above; settings: rating scale 0-100, 14 days after application
Method in brief: as §2

[6] = test system: large crabgrass (Digitaria sanguinalis, DIGSA); experiment: as above; settings: rating scale 0-100, 14 days after application
Method in brief: as §2

[7] = test system: green foxtail (Setaria viridis, SETVI); experiment: as above; settings: rating scale 0-100, 14 days after application
Method in brief: as §2

[8] = test system: barnyardgrass (Echinochloa crus-galli, ECHCG); experiment: as above; settings: rating scale 0-100, 14 days after application
Method in brief: as §2

[9] = test system: johnsongrass (Sorghum halepense, SORHA); experiment: as above; settings: rating scale 0-100, 14 days after application
Method in brief: as §2

[10] = test system: common ragweed (Ambrosia artemisizfolia L., AMBEL); experiment: as above; settings: rating scale 0-100, 14 days after application
Method in brief: as §2

[11] = test system: sicklepod (Cassia obtusifolia, CASOB); experiment: as above; settings: rating scale 0-100, 14 days after application
Method in brief: as §2

[12] = test system: ivyleaf morningglory (Ipomoea hederacea, IPOHE); experiment: as above; settings: rating scale 0-100, 14 days after application
Method in brief: as §2

[13] = test system: upland rice (Oryza sp., var. Tebonnet, RICE); experiment: Post-emerge test, crop safety; settings: rating scale 0-100 (0 no damage, 100 complete death), 14 days after application
Method in brief: as §2

[14] = test system: field corn (Zea mays L., var. Dekalb 535, CORN); experiment: Post-emerge test, crop safety; settings: rating scale 0-100 (0 no damage, 100 complete death), 14 days after application
Method in brief: as §2

[15] = test system: velvetleaf (Abutilon theophrasti, ABUTH); experiment: Post-emerge test, greenhouse herbicide activity screening; settings: rating scale 0-100 (0 no damage, 100 complete death), 14 days after application
Method in brief: (§3)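 Applied at 15–1000 g ai/ha from acetone in 187 l/ha spray volume. Post-emergence applications included 0.25% v/v non-ionic surfactant and reached plants sown 8–21 days before. Pre-emergence applications were incorporated by surface watering. Efficacy or crop damage was rated on a 0–100 scale after 14 days.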

[16] = test system: redroot pigweed (Amaranthus retroflexus, AMARE); experiment: as above; settings: rating scale 0-100 (0 no damage, 100 complete death), 14 days after application
Method in brief: as §3

[17] = test system: lambsquarters (Chenopodium album, CHEAL); experiment: as above; settings: rating scale 0-100 (0 no damage, 100 complete death), 14 days after application
Method in brief: as §3

[18] = test system: large crabgrass (Digitaria sanguinalis, DIGSA); experiment: as above; settings: rating scale 0-100 (0 no damage, 100 complete death), 14 days after application
Method in brief: as §3

[19] = test system: green foxtail (Setaria viridis, SETVI); experiment: as above; settings: rating scale 0-100 (0 no damage, 100 complete death), 14 days after application
Method in brief: as §3

[20] = test system: barnyardgrass (Echinochloa crus-galli, ECHCG); experiment: as above; settings: rating scale 0-100 (0 no damage, 100 complete death), 14 days after application
Method in brief: as §3

[21] = test system: johnsongrass (Sorghum halepense, SORHA); experiment: as above; settings: rating scale 0-100 (0 no damage, 100 complete death), 14 days after application
Method in brief: as §3

[22] = test system: common ragweed (Ambrosia artemisizfolia L., AMBEL); experiment: as above; settings: rating scale 0-100 (0 no damage, 100 complete death), 14 days after application
Method in brief: as §3

[23] = test system: sicklepod (Cassia obtusifolia, CASOB); experiment: as above; settings: rating scale 0-100 (0 no damage, 100 complete death), 14 days after application
Method in brief: as §3

[24] = test system: ivyleaf morningglory (Ipomoea hederacea, IPOHE); experiment: as above; settings: rating scale 0-100 (0 no damage, 100 complete death), 14 days after application
Method in brief: as §3

COc1c(Cl)cc(F)c(-n2c(=O)cc(C(F)(F)F)n(C)c2=O)c1CC(Cl)C(=O)OC(C)(C)C (stereo not drawn) [14-18]
40: Pre-emerge herbicidal activity, phytotoxicity rating ABUTH ([4]; 63 g ai/ha)
60: Post-emerge Herbicidal Activity, phytotoxicity rating ABUTH ([15]; Rate 250 g ai/ha) | Post-emerge Herbicidal Activity, phytotoxicity rating DIGSA ([18]; Rate 250 g ai/ha) | Post-emerge Herbicidal Activity, phytotoxicity rating CASOB ([23]; Rate 250 g ai/ha) | Post-emerge Herbicidal Activity, phytotoxicity rating IPOHE ([24]; Rate 250 g ai/ha)
100: Pre-emerge herbicidal activity, phytotoxicity rating AMARE ([3]; 63 g ai/ha) | Pre-emerge herbicidal activity, phytotoxicity rating AMARE ([3]; 250 g ai/ha) | Pre-emerge herbicidal activity, phytotoxicity rating CHEAL ([5]; 63 g ai/ha) | Pre-emerge herbicidal activity, phytotoxicity rating CHEAL ([5]; 250 g ai/ha) | Post-emerge Herbicidal Activity, phytotoxicity rating AMARE ([16]; Rate 63 g ai/ha) | Post-emerge Herbicidal Activity, phytotoxicity rating AMARE ([16]; Rate 250 g ai/ha) | Post-emerge Herbicidal Activity, phytotoxicity rating CHEAL ([17]; Rate 250 g ai/ha) | Post-emerge Herbicidal Activity, phytotoxicity rating ECHCG ([20]; Rate 250 g ai/ha)
70: Pre-emerge herbicidal activity, phytotoxicity rating ABUTH ([4]; 250 g ai/ha) | Pre-emerge herbicidal activity, phytotoxicity rating AMBEL ([10]; 250 g ai/ha)
50: Post-emerge phytotoxicity rating CORN (crop damage) ([14]; Rate 250 g ai/ha)
30: Post-emerge Herbicidal Activity, phytotoxicity rating ABUTH ([15]; Rate 63 g ai/ha) | Post-emerge Herbicidal Activity, phytotoxicity rating SORHA ([21]; Rate 250 g ai/ha) | Post-emerge Herbicidal Activity, phytotoxicity rating IPOHE ([24]; Rate 63 g ai/ha)
0: Pre-emerge phytotoxicity rating, crop damage RICE ([1]; 63 g ai/ha) | Pre-emerge phytotoxicity rating, crop damage CORN ([2]; 63 g ai/ha) | Pre-emerge phytotoxicity rating, crop damage CORN ([2]; 250 g ai/ha) | Pre-emerge herbicidal activity, phytotoxicity rating DIGSA ([6]; 63 g ai/ha) | Pre-emerge herbicidal activity, phytotoxicity rating SETVI ([7]; 63 g ai/ha) | Pre-emerge herbicidal activity, phytotoxicity rating ECHCG ([8]; 63 g ai/ha) | Pre-emerge herbicidal activity, phytotoxicity rating SORHA ([9]; 63 g ai/ha) | Pre-emerge herbicidal activity, phytotoxicity rating AMBEL ([10]; 63 g ai/ha) | Pre-emerge herbicidal activity, phytotoxicity rating CASOB ([11]; 63 g ai/ha) | Pre-emerge herbicidal activity, phytotoxicity rating IPOHE ([12]; 63 g ai/ha) | Post-emerge Herbicidal Activity, phytotoxicity rating AMBEL ([22]; Rate 63 g ai/ha)
90: Pre-emerge herbicidal activity, phytotoxicity rating DIGSA ([6]; 250 g ai/ha)
25: Post-emerge phytotoxicity rating RICE (crop damage) ([13]; Rate 250 g ai/ha)
99: Post-emerge Herbicidal Activity, phytotoxicity rating CHEAL ([17]; Rate 63 g ai/ha) | Post-emerge Herbicidal Activity, phytotoxicity rating ECHCG ([20]; Rate 63 g ai/ha)
10: Pre-emerge phytotoxicity rating, crop damage RICE ([1]; 250 g ai/ha) | Pre-emerge herbicidal activity, phytotoxicity rating SORHA ([9]; 250 g ai/ha) | Post-emerge phytotoxicity rating RICE (crop damage) ([13]; Rate 63 g ai/ha) | Post-emerge Herbicidal Activity, phytotoxicity rating SETVI ([19]; Rate 63 g ai/ha) | Post-emerge Herbicidal Activity, phytotoxicity rating SORHA ([21]; Rate 63 g ai/ha) | Post-emerge Herbicidal Activity, phytotoxicity rating AMBEL ([22]; Rate 250 g ai/ha)
20: Pre-emerge herbicidal activity, phytotoxicity rating SETVI ([7]; 250 g ai/ha) | Pre-emerge herbicidal activity, phytotoxicity rating ECHCG ([8]; 250 g ai/ha) | Pre-emerge herbicidal activity, phytotoxicity rating CASOB ([11]; 250 g ai/ha) | Pre-emerge herbicidal activity, phytotoxicity rating IPOHE ([12]; 250 g ai/ha) | Post-emerge phytotoxicity rating CORN (crop damage) ([14]; Rate 63 g ai/ha) | Post-emerge Herbicidal Activity, phytotoxicity rating DIGSA ([18]; Rate 63 g ai/ha) | Post-emerge Herbicidal Activity, phytotoxicity rating SETVI ([19]; Rate 250 g ai/ha) | Post-emerge Herbicidal Activity, phytotoxicity rating CASOB ([23]; Rate 63 g ai/ha)

— patent US6355799B1, “Substituted benzene compounds, process for their preparation, and herbicidal and defoliant compositions containing them” (ISK Americas Incorporated, priority 1997, dated 2002)
